US20180000085A1, “USE OF PICOLINAMIDE COMPOUNDS WITH FUNGICIDAL ACTIVITY” (DOW AGROSCIENCES LLC, priority 2014, published 2018)

Experiments:
Assay type in all cases: in vivo
Rhyncosporium secalis = test: Barley scald (RHYNSE) disease control; set-up: key: A: > 80; B: ≤ 80; C: Not Tested; D: No Activity Observed in the Reported Assay; details: 100 ppm, 1 Day Protectant
Procedure: All fungicides were evaluated using the aforementioned method for their activity vs. all target diseases, unless stated otherwise. Wheat leaf blotch and brown rust activity were also evaluated using track spray applications, in which case the fungicides were formulated as EC formulations, containing 0.1% Trycol 5941 in the spray solutions. Wheat plants (variety Yuma) were grown from seed in a greenhouse in 50% mineral soil/50% soil-less Metro mix until the first leaf was fully emerged, with 7-10 seedlings per pot. These plants were inoculated with an aqueous spore suspension of Zymoseptoria tritici either prior to or after fungicide treatments. After inoculation the plants were kept in 100% relative humidity (one day in a dark dew chamber followed by two to three days in a lighted dew chamber at 20° C.) to permit spores to germinate and infect the leaf. The plants were then transferred to a greenhouse set at 20° C. for disease to develop. When disease symptoms were fully expressed on the 1st leaves of untreated plants, infection levels were assessed on a scale of 0 to 100 percent disease severity. Percent disease control was calculated using the ratio of disease severity on treated plants relative to untreated plants. Example H: Evaluation of Fungicidal Activity: Barley Scald (Rhyncosporium secalis; Bayer Code […]) Barley seedlings (variety Harrington) were propagated in soil-less Metro mix, with each pot having 8 to 12 plants, and used in the test when first leaf was fully emerged. Test plants were inoculated by an aqueous spore suspension of Rhyncosporium secalis 24 hr after fungicide treatments. After inoculation the plants were kept in a dew room at 22° C. with 100% relative humidity for 48 hr. The plants were then transferred to a greenhouse set at 20° C. for disease to develop. Fungicide formulation, application and disease assessment on the sprayed leaves followed the procedures as described in the Example A.

[1] = system: Colletotrichum lagenarium; test: Cucumber anthracnose (COLLLA) disease control; details: 100 ppm, 1 Day Protectant
Procedure: All fungicides were evaluated using the aforementioned method for their activity vs. all target diseases, unless stated otherwise. Wheat leaf blotch and brown rust activity were also evaluated using track spray applications, in which case the fungicides were formulated as EC formulations, containing 0.1% Trycol 5941 in the spray solutions. Wheat plants (variety Yuma) were grown from seed in a greenhouse in 50% mineral soil/50% soil-less Metro mix until the first leaf was fully emerged, with 7-10 seedlings per pot. These plants were inoculated with an aqueous spore suspension of Zymoseptoria tritici either prior to or after fungicide treatments. After inoculation the plants were kept in 100% relative humidity (one day in a dark dew chamber followed by two to three days in a lighted dew chamber at 20° C.) to permit spores to germinate and infect the leaf. The plants were then transferred to a greenhouse set at 20° C. for disease to develop. When disease symptoms were fully expressed on the 1st leaves of untreated plants, infection levels were assessed on a scale of 0 to 100 percent disease severity. Percent disease control was calculated using the ratio of disease severity on treated plants relative to untreated plants. Example K: Evaluation of Fungicidal Activity: Cucumber Anthracnose (Colletotrichum lagenarium; Bayer Code COLLLA) Cucumber seedlings (variety Bush Pickle) were propagated in soil-less Metro mix, with each pot having one plant, and used in the test when 12 to 14 days old. Test plants were inoculated with an aqueous spore suspension of Colletotrichum lagenarium 24 hr after fungicide treatments. After inoculation the plants were kept in a dew room at 22° C. with 100% relative humidity for 48 hr to permit spores to germinate and infect the leaf. The plants were then transferred to a growth room set at 22° C. for disease to develop. Fungicide formulation, application and disease assessment on the sprayed leaves followed the procedures as described in the Example A.

Alternaria solani = test: Tomato early blight (ALTESO) disease control; set-up: key: A: > 80; B: ≤ 80; C: Not Tested; D: No Activity Observed in the Reported Assay; details: 100 ppm, 1 Day Protectant
Procedure: All fungicides were evaluated using the aforementioned method for their activity vs. all target diseases, unless stated otherwise. Wheat leaf blotch and brown rust activity were also evaluated using track spray applications, in which case the fungicides were formulated as EC formulations, containing 0.1% Trycol 5941 in the spray solutions. Wheat plants (variety Yuma) were grown from seed in a greenhouse in 50% mineral soil/50% soil-less Metro mix until the first leaf was fully emerged, with 7-10 seedlings per pot. These plants were inoculated with an aqueous spore suspension of Zymoseptoria tritici either prior to or after fungicide treatments. After inoculation the plants were kept in 100% relative humidity (one day in a dark dew chamber followed by two to three days in a lighted dew chamber at 20° C.) to permit spores to germinate and infect the leaf. The plants were then transferred to a greenhouse set at 20° C. for disease to develop. When disease symptoms were fully expressed on the 1st leaves of untreated plants, infection levels were assessed on a scale of 0 to 100 percent disease severity. Percent disease control was calculated using the ratio of disease severity on treated plants relative to untreated plants. Example J: Evaluation of Fungicidal Activity: Tomato Early Blight (Alternaria solani; Bayer Code […]) Tomato plants (variety Outdoor Girl) were propagated in soil-less Metro mix, with each pot having one plant, and used when 12 to 14 days old. Test plants were inoculated with an aqueous spore suspension of Alternaria solani 24 hr after fungicide treatments. After inoculation the plants were kept in a dew room at 22° C. with 100% relative humidity for 48 h to permit spores to germinate and infect the leaf. The plants were then transferred to a growth room at 22° C. for disease to develop. Fungicide formulation, application and disease assessment on the sprayed leaves followed the procedures as described in the Example A.

Phakopsora pachyrhizi = test: Asian soybean rust (PHAKPA) disease control; set-up: key: A: > 80; B: ≤ 80; C: Not Tested; D: No Activity Observed in the Reported Assay; details: 25 ppm; for PHAKPA disease control, 1DP: 1 Day Protectant; for PHAKPA disease control, 3DC: 3 Day Curative
Pyricularia oryzae = details: 100 ppm; 1 Day Protectant; rice

SMILES	RHYNSE disease control, 1DP (Rhyncosporium secalis)	COLLLA disease control, 1DP [1]	ALTESO disease control, 1DP (Alternaria solani)	PHAKPA disease control, 1DP (Phakopsora pachyrhizi)	PHAKPA disease control, 3DC (Phakopsora pachyrhizi)	PYRIOR disease control, 1DP (Pyricularia oryzae)
COc1ccnc(C(=O)N[C@@H](C)C(=O)O[C@@H](C)[C@H](Oc2cccc(Cl)c2)C(C)C)c1OC(C)=O [Cmpd 566]	A (> 80)	A (> 80)	B (≤ 80)	A (> 80)	B (≤ 80)	–
CCC[C@@H](Oc1ccccc1)[C@H](C)OC(=O)[C@H](C)NC(=O)c1nccc(OC)c1OCOC(C)=O [Cmpd 699]	B (≤ 80)	A (> 80)	B (≤ 80)	A (> 80)	B (≤ 80)	A (> 80)
COc1ccnc(C(=O)N[C@@H](C)C(=O)O[C@@H](C)[C@H](Oc2ccccc2)c2ccccc2)c1OCOC(C)=O [Cmpd 500]	A (> 80)	A (> 80)	B (≤ 80)	B (≤ 80)	B (≤ 80)	A (> 80)
COc1ccnc(C(=O)N[C@@H](C)C(=O)O[C@@H](C)[C@H](Oc2cc(F)cc(Cl)c2)C(C)C)c1OCOC(C)=O [Cmpd 617]	B (≤ 80)	A (> 80)	D	A (> 80)	B (≤ 80)	–
COc1ccnc(C(=O)N[C@H](C)C(=O)O[C@H](C)[C@H](Oc2ccccc2)C(C)C)c1OCOC(C)=O [Cmpd 560]	–	–	B (≤ 80)	B (≤ 80)	D	–
COc1ccnc(C(=O)N[C@@H](C)C(=O)O[C@@H](C)[C@H](Oc2ccccc2Cl)c2ccccc2)c1OC(C)=O [Cmpd 640]	B (≤ 80)	A (> 80)	B (≤ 80)	B (≤ 80)	B (≤ 80)	A (> 80)
CC[C@@H](CCOC)[C@@H](Oc1ccccc1)[C@H](C)OC(=O)[C@H](C)NC(=O)c1nccc(OC)c1OC(C)=O [Cmpd 482]	–	A (> 80)	B (≤ 80)	–	–	A (> 80)
COc1ccnc(C(=O)N[C@@H](C)C(=O)O[C@@H](C)[C@H](Oc2ccccc2)C(C)C)c1OCOC(C)=O [Cmpd 475]	B (≤ 80)	A (> 80)	B (≤ 80)	A (> 80)	A (> 80)	A (> 80)
CCCOC(CC)C(Oc1ccccc1)C(C)OC(=O)C(C)NC(=O)c1nccc(OC)c1OCOC(C)=O (centres unmarked) [Cmpd 446]	B (≤ 80)	B (≤ 80)	D	A (> 80)	B (≤ 80)	–
COc1ccnc(C(=O)N[C@@H](C)C(=O)O[C@@H](C)[C@H](Oc2cccc(Cl)c2)c2ccccc2)c1OCOC(C)=O [Cmpd 637]	D	B (≤ 80)	D	A (> 80)	B (≤ 80)	B (≤ 80)
COc1ccnc(C(=O)N[C@@H](C)C(=O)O[C@@H](C)[C@@H](Oc2ccccc2)C(C)C)c1OCOC(C)=O [Cmpd 552]	–	–	B (≤ 80)	A (> 80)	B (≤ 80)	–
COc1ccnc(C(=O)N[C@@H](C)C(=O)O[C@@H](C)[C@@H](CC(C)C)Oc2ccccc2)c1OCOC(C)=O [Cmpd 557]	–	–	B (≤ 80)	A (> 80)	B (≤ 80)	–
COc1ccnc(C(=O)N[C@H](C)C(=O)O[C@@H](C)[C@H](Oc2ccccc2)C(C)C)c1OCOC(C)=O [Cmpd 558]	–	–	B (≤ 80)	B (≤ 80)	D	–
CCC(C)C(Oc1ccccc1)C(C)OC(=O)C(C)NC(=O)c1nccc(OC)c1OC(C)=O (centres unmarked) [Cmpd 691]	B (≤ 80)	A (> 80)	D	A (> 80)	B (≤ 80)	–
COc1ccnc(C(=O)N[C@H](C)C(=O)O[C@H](C)[C@@H](Oc2ccccc2)C(C)C)c1OCOC(C)=O [Cmpd 548]	–	–	B (≤ 80)	B (≤ 80)	D	–
COc1ccnc(C(=O)N[C@H](C)C(=O)O[C@H](C)[C@@H](Oc2ccccc2)c2ccccc2)c1OCOC(C)=O [Cmpd 549]	–	–	B (≤ 80)	D	D	–
COc1ccnc(C(=O)N[C@H](C)C(=O)O[C@@H](C)[C@@H](Oc2ccccc2)C(C)C)c1OCOC(C)=O [Cmpd 559]	–	–	B (≤ 80)	B (≤ 80)	B (≤ 80)	–
COc1ccnc(C(=O)N[C@@H](C)C(=O)O[C@H](C)[C@@H](Oc2ccccc2)c2ccccc2)c1OCOC(C)=O [Cmpd 547]	–	–	B (≤ 80)	B (≤ 80)	D	–
